A compilation of properties of binary mixtures (doi:10.1016/j.molliq.2022.119944)

Assay: xn = mol fraction of the nth substance listed
Conditions: 101.3 kPa

Question: Which results are given for `C=C[n+]1ccn(CCCC)c1.N[C@@H](CO)C(=O)[O-]` + O?
Answer: viscosity (293.15 K, x1 = 0.1): 6.68 mPa·s; viscosity (293.15 K, x1 = 0.5): 95.4 mPa·s; viscosity (293.15 K, x1 = 0.7): 720 mPa·s; viscosity (293.15 K, x1 = 0.9): 2700 mPa·s; viscosity (293.15 K, x1 = 1): 18000 mPa·s; electrical conductivity (303.15 K, x1 = 0.3): 2.86 S/m; viscosity (303.15 K, x1 = 0.3): 13.51 mPa·s; electrical conductivity (303.15 K, x1 = 0.5): 3.18 S/m; viscosity (303.15 K, x1 = 0.5): 71.2 mPa·s; electrical conductivity (303.15 K, x1 = 0.7): 2.61 S/m; viscosity (303.15 K, x1 = 0.7): 490 mPa·s; electrical conductivity (303.15 K, x1 = 1): 0.006 S/m; viscosity (303.15 K, x1 = 1): 13600 mPa·s; electrical conductivity (308.15 K, x1 = 0.1): 1.46 S/m; electrical conductivity (308.15 K, x1 = 0.3): 3.08 S/m; electrical conductivity (308.15 K, x1 = 0.5): 3.44 S/m; electrical conductivity (308.15 K, x1 = 0.7): 2.84 S/m; electrical conductivity (308.15 K, x1 = 1): 0.007 S/m; electrical conductivity (313.15 K, x1 = 0.1): 1.61 S/m; viscosity (313.15 K, x1 = 0.1): 5.94 mPa·s; electrical conductivity (313.15 K, x1 = 0.3): 3.31 S/m; viscosity (313.15 K, x1 = 0.3): 10.76 mPa·s; electrical conductivity (313.15 K, x1 = 0.5): 3.75 S/m; viscosity (313.15 K, x1 = 0.5): 54.6 mPa·s; electrical conductivity (313.15 K, x1 = 0.7): 3.19 S/m; viscosity (313.15 K, x1 = 0.7): 446 mPa·s; electrical conductivity (313.15 K, x1 = 0.9): 1.1 S/m; viscosity (313.15 K, x1 = 0.9): 1159 mPa·s; electrical conductivity (313.15 K, x1 = 1): 0.01 S/m; viscosity (313.15 K, x1 = 1): 9100 mPa·s; electrical conductivity (318.15 K, x1 = 0.1): 1.78 S/m; electrical conductivity (318.15 K, x1 = 0.3): 3.65 S/m; electrical conductivity (318.15 K, x1 = 0.5): 4.05 S/m; electrical conductivity (318.15 K, x1 = 0.7): 3.43 S/m; electrical conductivity (318.15 K, x1 = 0.9): 1.42 S/m; electrical conductivity (318.15 K, x1 = 1): 0.013 S/m; electrical conductivity (323.15 K, x1 = 0.1): 1.9 S/m; viscosity (323.15 K, x1 = 0.1): 4.84 mPa·s; electrical conductivity (323.15 K, x1 = 0.3): 3.9 S/m; viscosity (323.15 K, x1 = 0.3): 8.81 mPa·s; electrical conductivity (323.15 K, x1 = 0.5): 4.46 S/m; viscosity (323.15 K, x1 = 0.5): 44.4 mPa·s; electrical conductivity (323.15 K, x1 = 0.7): 3.82 S/m; viscosity (323.15 K, x1 = 0.7): 400 mPa·s; electrical conductivity (323.15 K, x1 = 0.9): 1.69 S/m; viscosity (323.15 K, x1 = 0.9): 820 mPa·s; viscosity (333.15 K, x1 = 0.1): 4.82 mPa·s; viscosity (333.15 K, x1 = 0.3): 7.96 mPa·s; viscosity (333.15 K, x1 = 0.7): 396 mPa·s; viscosity (333.15 K, x1 = 0.9): 670 mPa·s; viscosity (333.15 K, x1 = 1): 2800 mPa·s; viscosity (343.15 K, x1 = 0.1): 4.57 mPa·s; viscosity (343.15 K, x1 = 0.3): 7.27 mPa·s; viscosity (343.15 K, x1 = 0.5): 37.75 mPa·s; viscosity (343.15 K, x1 = 0.7): 387 mPa·s; viscosity (343.15 K, x1 = 0.9): 610 mPa·s; viscosity (353.15 K, x1 = 0.3): 7.11 mPa·s; viscosity (353.15 K, x1 = 0.7): 385 mPa·s; viscosity (353.15 K, x1 = 0.9): 540 mPa·s
